{"source": "patent US20200029558A1", "about": "“Biocidal Microcapsules for Biofouling Control” (Greenseal Research Ltd, priority 2016, published 2020)", "assay_type_in_all_cases": "cell-based", "key": {"[1]": {"system": "Staphylococcus aureus (ATCC 25923)", "test": "Well diffusion antimicrobial bioassay of microcapsules", "conditions": "wells approx. 5.0 mm, 37° C. 24 hours", "procedure": "(§1) Bioassays were performed to assess the antimicrobial activity against Staphylococcus aureus (ATCC 25923) by the Well diffusion method, at different mediums (artificial sea water (Sera marine salt), DMSO and MilliQ water). Initially, the microorganisms were cultured on Muller-Hinton agar for bacteria Staphylococcus aureus. Then, 100 μL of a standardized microorganism suspension, corresponding to 0.5 McFarland, was used to inoculate a Petri dish of solid Mueller-Hinton medium. These suspensions were spread over the medium surface using a sterile swab. Subsequently, agar wells were made of approximately 5.0 mm in diameter with a Pasteur pipette. Then, 50 μL of each sample, negative control (DMSO) and positive control (Econea) for Gram positive bacteria (Staphylococcus aureus), were added on each of the wells. Plates were incubated at 37° C. for 24 hours. After this period, the diameters of the inhibition zones were measured and the results were expressed in millimeters (mm). The assay was performed under aseptic conditions and in triplicate [M. Pereira, D. Matias, F. Pereira, C. P. Reis, M. F. Simões, P. Rijo, Antimicrobial screening of Plectranthus madagascariensis and P. neochilus extracts, Biomedical and Biopharmaceutical Research, Vol. 12 (2015) 127-138]. Following the above described procedure, different mediums were used to assess the bioactivity of microcapsules, such as artificial sea water, MilliQ water and dimethyl sulfoxide (DMSO) (Table 1).\nFollowing similar bioassays procedures as example 1, different mediums were used to assess the bioactivity of microcapsules, such as artificial sea water, MilliQ water and dimethyl sulfoxide (DMSO) (Table 3)."}, "[2]": {"system": "Staphylococcus aureus (ATCC25923)", "test": "Antimicrobial activity of coating formulation films containing biocidal microcapsules", "procedure": "as §1, with “Following the above described procedure, different mediums were used to assess the bioactivity of microcapsules, such as artificial sea water, MilliQ water and dimethyl sulfoxide (DMSO) (Table 1).” left out"}, "[3]": {"system": "Staphylococcus aureus (ATCC25923)", "test": "Leaching tests on coated specimens (adapted OECD 313-2007), leaching waters assessed by bioassay", "conditions": "after 30 days of exposure in artificial sea water, 120 rpm", "procedure": "as §1, with “The assay was performed under aseptic conditions and in triplicate [M. Pereira, D. Matias, F. Pereira, C. P. Reis, M. F. Simões, P. Rijo, Antimicrobial screening of Plectranthus madagascariensis and P. neochilus extracts, Biomedical and Biopharmaceutical Research, Vol. 12 (2015) 127-138]. Following the above described procedure, different mediums were used to assess the bioactivity of microcapsules, such as artificial sea water, MilliQ water and dimethyl sulfoxide (DMSO) (Table 1).” left out\nLeaching of the biocide through the paint films of coated specimens containing the developed biocidal MCs was assessed by leaching tests, following an adapted procedure from the standard OECD 313-2007. […] Finally, the antimicrobial activity of the leaching waters was assessed by bioassays against microorganisms such as Staphylococcus aureus, following the same procedure as described in the previous examples."}}}
{"smiles": "N#Cc1c(-c2ccc(Cl)cc2)[nH]c(C(F)(F)F)c1Br", "note": "[Econea biocide, 2-(p-chlorophenyl)-3-cyano-4-bromo-5-trifluoromethyl pyrrole]", "values": [{"measurement": "Inhibition zones", "setting": "[1]; medium DMSO", "result": 19, "unit": "mm"}, {"measurement": "Inhibition zones", "setting": "[1]; medium MilliQ water", "result": 23, "unit": "mm"}, {"measurement": "Inhibition zones", "setting": "[1]; medium artificial sea water", "result": 20, "unit": "mm"}, {"measurement": "Inhibition zones of polyurethane based coating formulations", "setting": "[2]; medium DMSO", "result": 20, "unit": "mm"}, {"measurement": "Inhibition zones of polyurethane based coating formulations", "setting": "[2]; medium artificial sea water", "result": 18, "unit": "mm"}, {"measurement": "Inhibition zones of leaching waters of immersed coated specimens", "setting": "[3]", "result": 20, "unit": "mm"}]}
